# Values of other authors, collected in patent US20040142823A1, “Adjuvant compositions and pesticides” (priority 2003, published 2004).
# Like-named read-outs stand apart in the source and are kept apart here.
smiles,measurement,setting,value
"CNC(=O)CSP(=S)(OC)OC [Cygon, dimethoate]",Time to lose 50 percent of pest control power,mixed in water of pH 9,48 min
same,Time to lose 50 percent of pest control power,pH of 6,720 min
